{"source": "patent US20250197820A1", "about": "“NUCLEIC ACID POLYMERASE AND ITS USE IN PRODUCING NON-DNA NUCLEOTIDE POLYMERS” (UNITED KINGDOM RESEARCH AND INNOVATION, priority 2021, published 2025)", "molecules": {"B1": {"name": "RGVG-M6: T7 RNA polymerase variant (P266L, S430P, N433T, E593G, S633P, Y639V, V685A, H784G, F849I, F880Y) (protein, UniProt P00573 1-883, looked up, variant P266L S430P N433T E593G S633P Y639V V685A H784G F849I F880Y)", "T7 RNA polymerase": "MNTINIAKNDFSDIELAAIPFNTLADHYGERLAREQLALEHESYEMGEARFRKMFERQLKAGEVADNAAAKPLITTLLPKMIARINDWFEEVKAKRGKRPTAFQFLQEIKPEAVAYITIKTTLACLTSADNTTVQAVASAIGRAIEDEARFGRIRDLEAKHFKKNVEEQLNKRVGHVYKKAFMQVVEADMLSKGLLGGEAWSSWHKEDSIHVGVRCIEMLIESTGMVSLHRQNAGVVGQDSETIELAPEYAEAIATRAGALAGISLMFQPCVVPPKPWTGITGGGYWANGRRPLALVRTHSKKALMRYEDVYMPEVYKAINIAQNTAWKINKKVLAVANVITKWKHCPVEDIPAIEREELPMKPEDIDMNPEALTAWKRAAAAVYRKDKARKSRRISLEFMLEQANKFANHKAIWFPYNMDWRGRVYAVPMFTPQGNDMTKGLLTLAKGKPIGKEGYYWLKIHGANCAGVDKVPFPERIKFIEENHENIMACAKSPLENTWWAEQDSPFCFLAFCFEYAGVQHHGLSYNCSLPLAFDGSCSGIQHFSAMLRDEVGGRAVNLLPSETVQDIYGIVAKKVNEILQADAINGTDNGVVTVTDENTGEISEKVKLGTKALAGQWLAYGVTRSVTKRPVMTLAVGSKEFGFRQQVLEDTIQPAIDSGKGLMFTQPNQAAGYMAKLIWESASVTVVAAVEAMNWLKSAAKLLAAEVKDKKTGEILRKRCAVHWVTPDGFPVWQEYKKPIQTRLNLMFLGQFRLQPTINTNKDSEIDAHKQESGIAPNFVGSQDGSHLRKTVVWAHEKYGIESFALIHDSFGTIPADAANLFKAVRETMVDTYESCDVLADFYDQIADQLHESQLDKMPALPAKGNLNLRDILESDYAFA"}}, "key": {"2M": {"target": "T1, 2M (Thermococcus gorgonarius, UniProt P56689, A485L/D141A/E143A/E664K/F545L/I521L/K592A/T541G/V93Q/Y409G)", "T1 construct": "made in house; host or cells: E. coli BL21 CodonPlus-RIL", "experiment": "Steady-state kinetics of single nucleotide incorporation by 2M", "format": "biochemical", "details": "single nucleotide incorporation from 2′OMe-RNA primer", "experimental": "Steady-state kinetic parameters for NTP incorporation by 2M were determined by performing initial velocity measurements of single incorporations of either ATP, 2′OMe-ATP, or MOE-ATP. To generate the 2′OMe-RNA/DNA substrate, a 20-mer 2′OMe-RNA primer FD was 5′ 6-carboxyfluorescein end-labeled and annealed to the 52-mer DNA template BFL770 (Supplementary Table 1) at a 1:1.2 molar ratio. The reactions were performed at 50° C. in a mixture containing 1× Thermopol buffer, 6 mM Mg^2+, 100 nM 2′OMe-RNA/DNA substrate, and at NTP concentrations ranging from 0.5-250 μM. Enzyme concentrations and reaction times were selected to maintain initial velocity conditions. The 25 μL reactions were stopped by addition of a quenching solution containing 100 mM EDTA, 80% deionized formamide, 0.25 mg/ml bromophenol blue and 0.25 mg/ml xylene cyanol. Moreover, less than 20% of the primers were extended as required for steady-state conditions.\nProduct and substrate were separated on a 22% denaturing (8 M urea) polyacrylamide gel. The resulting bands were quantified using a Cytiva Typhoon RGB imager in fluorescence mode. Steady-state kinetic parameters (KM, kcat) were determined by fitting the data to the Michaelis-Menten equation. The data are the means and standard error from three independent experiments."}, "TGK": {"target": "TGK (Thermococcus gorgonarius, UniProt P56689, A485L/D141A/E143A/E664K/V93Q/Y409G)", "details": "ATP incorporation from an RNA primer; cited from earlier work"}, "Sub_KRas_12 [G12D] RNA": {"test_system": "Sub_KRas_12 [G12D] RNA", "experiment": "2′OMezyme RNA cleavage in trans, KRAS G12D substrate", "format": "biochemical, human", "experimental": "(§1) RNA cleavage assays were performed in trans using PAGE-purified 2′OMezymes and RNA substrates, annealed as described above and incubated at 37° C. in 2′OMezyme selection buffer (30 mM EPPS pH 7.4, 150 mM KCl, 1 mM MgCl2), or 30 mM EPP pH 8.5, 150 mM KCl, 25 mM MgCl2, supplemented with RNasin ribonuclease inhibitor (Promega, USA). In Mg^2+ titration experiments, 2′OMezyme selection buffer was supplemented with additional magnesium chloride (MgCl2); in pH titration experiments, 150 mM KCl, 1 mM MgCl2 plus 50 mM buffer as follows was used: […] (pH 5.0-6.0), EPPS (pH 6.5-8.75), CHES (pH 9.0-12.0). For magnesium free reactions, 30 mM EPPS pH 7.4, 150 mM KCl, 5 mM EDTA was used.\nPseudo first-order reaction rates (kobs) under single-turnover pre-steady-state (Km/kcat) conditions were determined from three independent reactions with (separately annealed) catalyst at 5 μM and substrate at 1 μM, as described previously^8, fit using Prism 9 (GraphPad Software, USA). For multiple turnover reactions, 1 μM substrate was reacted with 10 nM 2′OMezyme at 37° C. in 2′OMezyme selection buffer."}, "[1]": {"test_system": "2.1 kb KRAS transcript (Sub_KRas_ORF)", "experiment": "2′OMezyme cleavage of long KRAS transcripts", "format": "biochemical, human", "details": "37° C., pH 7.4, 1 mM Mg^2+, 65 h", "experimental": "Human cDNA clones for KRAS (transcript variant b, accession no. NM_004985) and CTNNB1 (transcript variant 1, accession no. NM_001904) in plasmids pCMV6-XL6 (SP6 promoter) (cat. no. SC109374) and pCMV6-XL5 (T7 promoter) (cat. no. SC107921), respectively, were obtained from OriGene, USA. Site-directed mutagenesis was performed using a QuikChange II kit (Agilent Technologies, USA), according to the manufacturer's protocol; KRAS mutations G12D (c.35G>A) and G13D ([…]), and CTNNB1 mutation S33Y (c.98C>A) were introduced using primer sets shown in Supplementary Table 2 (“Quik_KRAS_G12D_Fw/Rev”, “Quik_KRAS_G13D_Fw/Rev” or “Quik_CTNNB_G12D_Fw/Rev”) and resulting plasmids cloned and verified by Sanger sequencing (Source Biosciences, UK). Long RNA substrates equivalent to full KRAS and CTNNB1 mRNA transcripts bearing 5′ fluorescein (“Sub_KRas_ORF” and “Sub_CTNNB1_ORF”, respectively) were prepared using HiScribe T7 and SP6 RNA synthesis kits (NEB, USA), according to the manufacturer's protocol, with a 4:1 ratio of 5′-Fluorescein-ApG dinucleotide (IBA Life Sciences, Germany) to GTP, using template plasmids linearised using XmaI (NEB, USA). Reactions were subsequently treated with TURBO DNase (Invitrogen/Thermo Fisher Scientific, USA) and RNA transcripts purified using RNeasy mini kits (Qiagen, Germany). […]"}, "[2]": {"test_system": "‘wild type’ (wt) KRAS RNA", "experiment": "2′OMezyme RNA cleavage in trans, wild type KRAS substrate", "format": "biochemical, human", "details": "differs from G12D substrate by one nucleotide (G35)", "experimental": "as §1"}, "[3]": {"experiment": "2′OMezyme serum stability", "format": "in vitro ADME", "details": "37° C., 120 h", "experimental": "PAGE-purified 2′OMezyme “R15/5-K” and DNAzyme “1023_KRasC” were annealed in water as described above, then incubated (at 5 μM) at 37° C. in 95% human serum (MilliporeSigma, Germany). Full-length catalyst remaining was quantified on Urea-PAGE gels stained with SYBR Gold (ThermoFisher Scientific, USA)."}, "[4]": {"test_system": "901 bp DNA template (sfGFP under T7 promoter)", "experiment": "2′OMe-RNA transcription reactions with RGVG-M6", "format": "biochemical", "details": "compared to 2M; dependent on high concentrations of Mn2+", "experimental": "DNA template for transcription reactions was created by PCR-amplifying a 901-bp region on a plasmid encoding sfGFP under a T7 promoter. The PCR used 0.5 μM forward primer “5T7.for” and 0.5 μM reverse primer “pCUN_Do.rev”; cycling conditions were 95° C. for 30 s, 30×[95° C. for 10 s, 69° C. for 30 s, 72° C. for 30 s], 72° C. for 2 min.\nFor very permissive conditions, reactions comprised 125 nM DNA template, 200 nM T7 RNAP WT or its variant RGVG-M613, 1.5 mM MnCl2, 7.5 mM each NTP or 1 mM each 2′OMe-NTP, 0.1 U yeast inorganic pyrophosphatase. In order to compare the yield of 2′OMe-RNA synthesis by 2M and RGVG-M6, reactions were run under equimolar nucleic acid input of 0.5 pmol primer (2M) and 0.5 pmol DNA template (50 nM, RGVG-M6), and 50 nM RGVG-M6 polymerase with a polymerase:template ratio of 1:1 as described in 13. Reactions were treated with Turbo DNase and Proteinase K followed by denaturing PAGE."}}}
{"molecule": "Nc1ncnc2c1ncn2[C@@H]1O[C@H](COP(=O)(O)OP(=O)(O)OP(=O)(O)O)[C@@H](O)[C@H]1O", "note": "[ATP]", "values": [{"measurement": "Vmax/kcat values for incorporation", "setting": "2M", "value": "essentially identical"}, {"measurement": "Km", "setting": "TGK", "value": 13.3, "unit": "µM"}]}
{"molecule": "R15/5-K: RNA endonuclease 2′OMezyme (all 2′OMe-RNA) specific for KRAS RNA c.26 - 44, G12D allele (CCUACGCACGUGACCCAUGACGGACAGAGAAGGCAUGACAGACUGCUCCAA; all 2'-O-methyl, backbone not given here)", "values": [{"measurement": "multiple-turnover catalysis", "setting": "Sub_KRas_12 [G12D] RNA; 10 nM 2′OMezyme, 1 μM substrate", "value": "capable of multiple-turnover catalysis"}, {"measurement": "kcat", "setting": "Sub_KRas_12 [G12D] RNA; 1 mM Mg^2+, pH 7.4, 37° C., single turnover", "value": 0.11, "unit": "h⁻¹"}, {"measurement": "reduction of single-turnover rate compared with optimal conditions", "setting": "Sub_KRas_12 [G12D] RNA; 1 mM Mg^2+, pH 7.4 vs 25 mM Mg^2+, pH 8.5", "value": "approximately 50%"}, {"measurement": "kcat", "setting": "Sub_KRas_12 [G12D] RNA; 5 mM EDTA, pH 7.4, 37° C. (absence of Mg^2+)", "value": 0.001, "unit": "h⁻¹"}, {"measurement": "kcat", "setting": "Sub_KRas_12 [G12D] RNA; 25 mM Mg^2+, pH 8.5, 37° C., single turnover, 5 μM 2′OMezyme, 1 μM substrate", "value": 0.24, "unit": "h⁻¹"}, {"measurement": "activity retained", "setting": "Sub_KRas_12 [G12D] RNA; quasi-physiological low-Mg^2+ regime (0.5-1 mM Mg^2+)", "value": "70-80%"}, {"measurement": "cleavage of wt KRAS transcript or G13D (c.38G>A) transcript", "setting": "[1]", "value": "virtually no cleavage"}, {"measurement": "cleavage of long structured KRAS transcript bearing G12D", "setting": "[1]; G12D (c.35G>A)", "value": "able to invade and cleave"}, {"measurement": "cleavage of wt KRAS RNA", "setting": "[2]", "value": "essentially no cleavage"}, {"measurement": "degradation (or loss in activity) after incubation in human serum", "setting": "[3]", "value": "no significant degradation"}]}
{"molecule": "B1", "values": [{"measurement": "2′OMe-RNA synthesis activity (in words)", "setting": "[4]", "value": "modest"}]}
